# What was measured:
# NOP receptor = details: cited from earlier work
# mouse vas deferens = details: isolated mouse vas deferens; cited from earlier work
# Description: On comparing the data with a wider range of pharmacological assays carried in vitro or in vivo, noticeable discrepancies are only apparent for a number of synthetic peptides that are known as NOP partial agonists. Such divergences are likely explained by the variations in stimulus/response coupling efficiency that characterize different pharmacological preparations. In fact, in accordance with classical receptor theory, the effect of a partial agonist can range from none to an almost full response, depending on the extent of amplification that the sensitivity of the signaling pathway exerts on ... || Also the estimates of antagonist potency derived from BRET analysis were in substantial agreement with similar determinations made in a variety of different pharmacological studies. […] We found, however, that a 3-fold increase in ...
# [1] = target: Human NOP Rluc-tagged fusion protein (N/OFQ peptide receptor fused to Renilla luciferase) (human) (UniProt P41146)
# Human NOP Rluc-tagged fusion protein (N/OFQ peptide receptor fused to Renilla luciferase) (human), sequence (P41146 whole entry, the tested form may be a part): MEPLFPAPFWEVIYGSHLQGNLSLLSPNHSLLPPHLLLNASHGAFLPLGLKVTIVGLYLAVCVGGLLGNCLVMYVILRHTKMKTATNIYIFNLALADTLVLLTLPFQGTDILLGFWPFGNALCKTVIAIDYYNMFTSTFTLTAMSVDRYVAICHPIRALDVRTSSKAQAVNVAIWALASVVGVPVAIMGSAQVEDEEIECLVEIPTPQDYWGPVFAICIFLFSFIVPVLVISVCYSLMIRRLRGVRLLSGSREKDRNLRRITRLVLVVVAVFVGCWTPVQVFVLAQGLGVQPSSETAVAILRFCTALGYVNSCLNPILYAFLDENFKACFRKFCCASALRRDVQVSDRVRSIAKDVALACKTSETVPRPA
"pA2, rightward shift of the concentration-response curve of N/OFQ for arrestin coupling (BRET, whole cells); value as the sentence prints it, differs from Table 3 (pA2 (-log10 M)) [1]",Compound,"antagonist potency estimate (pKB), [^35S]GTPγS binding (NOP receptor)",reversibility of antagonist action on washing (mouse vas deferens)
–,"Cc1cccc2c1CC[C@H](CN1CCC(c3c(Cl)cccc3Cl)CC1)C[C@@H]2O [SB-612111, (-)-cis-1-methyl-7-[[4-(2,6-dichlorophenyl)piperidin-1-yl]methyl]-6,7,8,9-tetrahy dro-5H-benzocyclohepten-5-ol]",9.70,remains unchanged even after 3 hours of repeated washing
9.42,UFP-101 (peptide),–,–
